In patent US7662857B2, “Diagnostic agents for pancreatic exocrine function” (Tokyo Gas Company Limited, priority 2001, dated 2010):

Experiments:
[1] = system: pancreatic exocrine function; assay: 13C-dipeptide breath test in normal rats (Δ13C in exhaled CO2 after oral administration); assay type: in vivo, rat; conditions: for Δ^13C(‰) peak value / Peak time: oral 35 μmol/kg (5 ml/kg); for Δ^13C(‰) peak value: exhaled CO2; for Δ^13C(‰) peak value compared with the peak value of Bz-Ala-(^13C-Ala)-ONa: oral 35 μmol/kg, comparison in words
Method: (§1) Overnight-fasted rats (male, Wistar, 8-week old) in the awake state were individually fixed in a rat holder of a microwave irradiation apparatus. The breath was collected at a rate of about 100 to 300 ml/min using a stroke pump (Variable Stroke Pump VS-500; Shibata Kagaku Kogyo), and the CO2 concentration therein was maintained at about 3%. A Perma Pure drier (MD-050-12P; Perma Pure INC.) was set between the rat holder and the stroke pump to remove water vapor from the breath. When the CO2 concentration was stabilized, the rat was temporarily released from the rat holder. A ^13C-labeled dipeptide or a sodium salt thereof each dissolved in distilled water was administered to the stomach of the rat using an oral probe [dose: 35 μmol/kg (5 ml/kg)]. The breath was sampled with a syringe every 5 min until up to 20 min. A 15 ml sample was transferred from the syringe into a vacuum vial (10 ml), sealed and subjected to automated analysis by GC-MS (Breath MAT) [FinniganMAT]. Δ^13C(‰) was calculated from δ^13C values which are ^13C values of a sample (i.e. differences from the standard substance PDB) using the following formula. Δ^13C(‰)=(δ^13C)tmin−((δ^13C)0 min <Breath MAT Measuring Conditions>
Apparatus: Breath MAT plus (Finningan)
Using Ac-Met-(^13C-Ala)-ONa, Z-Met-(^13C-Ala)-ONa, Boc-Met-(^13C-Ala)-ONa or Boc-Phe-(^13C-Ala)-ONa [dose: 35 μmol/kg (5 ml/kg)], ^13C-breath tests were carried out in the same manner as in Example 12. The resultant Δ^13C(‰) peak values were compared with the Δ^13C(‰) peak value in the Bz-Ala-(^13C-Ala)-ONa breath test.
(§2) As in Example 12, Bz-Phe-(^13C-Ala)-ONa [dose: 12.6 mg/kg (35 μmol/kg)], Bz-Gln-(^13C-Ala)-ONa [dose: 12.0 mg/kg (35 μmol/kg)], Bz-Val-(^13C-Ala)-ONa [dose: 11.0 mg/kg (35 μmol/kg)], Bz-Tyr-(^13C-Ala)-ONa [dose: 13.2 mg/kg (35 μmol/kg)], Bz-Met-(^13C-Ala)-ONa [dose: 12.1 mg/kg (35 μmol/kg)], Bz-Ser-(^13C-Ala)-ONa [dose: 10.6 mg/kg (35 μmol/kg)], Bz-Thr-(^13C-Ala)-ONa [dose: 11.0 mg/kg (35 μmol/kg)] or Boc-Phe-(^13C-Ala)-ONa [dose: 8.84 mg/kg (24.6 μmol/kg)] was administered orally to normal rats and chronic pancreatitis rats. Then, the time course of the degree of increase of the ^13C concentration in exhaled CO2 (Δ^13C(‰)) was measured.

[2] = system: pancreatic exocrine function; assay: 13C-dipeptide breath test in chronic pancreatitis rats (oleic acid injected into pancreatic duct); assay type: in vivo, rat; conditions: oral 8.84 mg/kg (24.6 μmol/kg), mean±SD
Method: as §1
Chronic pancreatitis rats were created according to the method of Mundlos et al., Pancreas 1:29 (1986). Oleic acid was injected into the pancreatic duct of 5-week old Wistar male rats. After breeding for 3 weeks, they were used in ^13C-dipeptide breath tests.
as §2

[3] = Table 1, overnight-fasted Wistar rats
[4] = Table 1, overnight-fasted Wistar rats, peak in time course of Δ13C(‰) up to 20 min

| SMILES | Δ^13C(‰) peak value [1, 3] | Peak time [1, 4] | Peak time ([1]; Table 2, rats) | Δ^13C(‰) peak value ([1]; Table 2, rats) | Δ^13C(‰) peak value compared with the peak value of Bz-Ala-(^13C-Ala)-ONa ([1]; rats) | further results |
| --- | --- | --- | --- | --- | --- | --- |
| C[C@H](NC(=O)[C@H](CCCNC(=N)N)NC(=O)c1ccccc1)[13C](=O)O [Bz-Arg-(^13C-Ala), reference compound] | 42.83 ‰ | 15 min |  |  |  |  |
| C[C@H](NC(=O)[C@H](CCCCN)NC(=O)c1ccccc1)[13C](=O)O [Bz-Lys-(^13C-Ala), reference compound] | 38.57 ‰ | 15 min |  |  |  |  |
| CSCC[C@H](NC(C)=O)C(=O)N[C@@H](C)[13C](=O)[O-].[Na+] [Na salt of Ac-Met-(^13C-Ala), acetyl-L-methionyl-^13C-L-alanine] |  |  | 15 min | 63.15 ‰ | higher |  |
| CSCC[C@H](NC(=O)OC(C)(C)C)C(=O)N[C@@H](C)[13C](=O)[O-].[Na+] [Na salt of Boc-Met-(^13C-Ala), t-butyloxycarbonyl-L-methionyl-^13C-L-alanine] |  |  | 15 min | 55.50 ‰ | higher |  |
| C[C@H](NC(=O)[C@H](Cc1ccccc1)NC(=O)OC(C)(C)C)[13C](=O)[O-].[Na+] [Na salt of Boc-Phe-(^13C-Ala), t-butyloxycarbonyl-L-phenylalanyl-^13C-L-alanine] |  |  | 20 min | 46.06 ‰ | higher | Δ^13C(‰) value at 5 min after the administration ([2]; 5 min): 0.74±0.54 ‰; Δ^13C(‰) value at 10 min after the administration ([2]; 10 min): 3.43±1.46 ‰; Δ^13C(‰) value at 15 min after the administration ([2]; 15 min): 6.36±2.67 ‰; Δ^13C(‰) value at 20 min after the administration ([2]; 20 min): 10.16±3.95 ‰; Δ^13C(‰) value at 5 min after the administration ([1]; normal rats, oral 8.84 mg/kg (24.6 μmol/kg), 5 min, mean±SD): 5.02±3.79 ‰; Δ^13C(‰) value at 10 min after the administration ([1]; normal rats, oral 8.84 mg/kg (24.6 μmol/kg), 10 min, mean±SD): 24.36±7.52 ‰; Δ^13C(‰) value at 15 min after the administration ([1]; normal rats, oral 8.84 mg/kg (24.6 μmol/kg), 15 min, mean±SD): 28.13±4.43 ‰; Δ^13C(‰) value at 20 min after the administration ([1]; normal rats, oral 8.84 mg/kg (24.6 μmol/kg), 20 min, mean±SD): 25.09±2.00 ‰ |
| C[C@H](NC(=O)c1ccccc1)C(=O)N[C@@H](C)[13C](=O)[O-].[Na+] [Na salt of Bz-Ala-(^13C-Ala), reference compound] | 45.88 ‰ | 10 min | 10 min | 45.88 ‰ |  |  |

Now from value to molecule, other results behind:

| Δ^13C(‰) peak value [1, 3] | Peak time [1, 4] | Peak time ([1]; Table 2, rats) | Δ^13C(‰) peak value ([1]; Table 2, rats) | Δ^13C(‰) peak value compared with the peak value of Bz-Ala-(^13C-Ala)-ONa ([1]; rats) | SMILES | further results |
| --- | --- | --- | --- | --- | --- | --- |
| 41.74 ‰ | 15 min |  |  |  | C[C@H](NC(=O)[C@H](CC(N)=O)NC(=O)c1ccccc1)[13C](=O)[O-].[Na+] [Na salt of Bz-Asn-(^13C-Ala), reference compound] |  |
| 11.47 ‰ | 20 min |  |  |  | C[C@H](NC(=O)[C@H](CC(=O)O)NC(=O)c1ccccc1)[13C](=O)[O-].[Na+] [Na salt of Bz-Asp-(^13C-Ala), reference compound] |  |
| 31.52 ‰ | 10 min |  |  |  | C[C@H](NC(=O)[C@H](CS)NC(=O)c1ccccc1)[13C](=O)[O-].[Na+] [Na salt of Bz-Cys-(^13C-Ala), reference compound] |  |
